Source: ChEMBL document CHEMBL5528048, “Discovery of Novel Potent and Fast BTK PROTACs for the Treatment of Osteoclasts-Related Inflammatory Diseases” (J Med Chem, 2024)
Active and inactive are the calls of the source. The calls are words filed in the database; no cut-off is given here.

What was measured:
[1] = Clearance in Sprague-Dawley rat at 4 mg/kg, ip measured upto 48 hrs; conditions: in vivo
[2] = molecular target: T1, Protein cereblon/Tyrosine-protein kinase BTK (Mus musculus) (UniProt P35991+Q8C7D2); assay: PROTAC activity at BTK/CRBN in mCSF/RANKL-stimulated C57BL/6J mouse BMDM assessed as reduction in phosphorylated NFkappa-p65 protein level at 25 to 100 nM followed by stimulated with mCSF/RANKL measured after 2 hrs by Western blotting analysis; format: cell-based; conditions: dose 25-100 nM
T1 sequence (P35991 whole entry, looked up): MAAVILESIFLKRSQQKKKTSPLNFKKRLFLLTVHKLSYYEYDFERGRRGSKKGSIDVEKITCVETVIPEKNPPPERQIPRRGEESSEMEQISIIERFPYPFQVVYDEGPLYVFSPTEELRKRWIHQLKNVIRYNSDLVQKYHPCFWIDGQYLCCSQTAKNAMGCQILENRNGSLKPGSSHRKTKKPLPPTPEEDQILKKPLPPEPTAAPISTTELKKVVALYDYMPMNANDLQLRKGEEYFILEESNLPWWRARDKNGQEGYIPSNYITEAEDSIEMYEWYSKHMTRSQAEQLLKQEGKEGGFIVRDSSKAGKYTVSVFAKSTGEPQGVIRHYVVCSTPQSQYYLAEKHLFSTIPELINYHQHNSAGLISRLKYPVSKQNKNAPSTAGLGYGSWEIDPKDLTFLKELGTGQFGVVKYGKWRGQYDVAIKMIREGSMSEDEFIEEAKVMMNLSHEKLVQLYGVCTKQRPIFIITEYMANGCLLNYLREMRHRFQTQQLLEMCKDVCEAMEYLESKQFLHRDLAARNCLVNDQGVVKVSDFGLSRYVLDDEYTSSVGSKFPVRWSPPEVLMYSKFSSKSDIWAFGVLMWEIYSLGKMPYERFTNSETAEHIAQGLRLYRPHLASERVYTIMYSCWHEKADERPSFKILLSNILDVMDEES
T1 sequence (Q8C7D2 whole entry, looked up): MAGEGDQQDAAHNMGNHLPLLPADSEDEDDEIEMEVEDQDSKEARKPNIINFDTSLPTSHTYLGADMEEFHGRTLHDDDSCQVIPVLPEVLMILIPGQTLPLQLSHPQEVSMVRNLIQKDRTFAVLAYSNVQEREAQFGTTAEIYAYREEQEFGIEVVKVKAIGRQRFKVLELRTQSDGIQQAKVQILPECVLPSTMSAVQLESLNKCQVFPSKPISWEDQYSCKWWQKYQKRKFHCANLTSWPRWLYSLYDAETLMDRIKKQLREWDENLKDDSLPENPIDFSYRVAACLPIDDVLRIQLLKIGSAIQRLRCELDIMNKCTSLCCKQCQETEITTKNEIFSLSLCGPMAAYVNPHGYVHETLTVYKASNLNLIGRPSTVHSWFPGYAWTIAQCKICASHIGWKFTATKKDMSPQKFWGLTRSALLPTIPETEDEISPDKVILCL

[3] = test system: BMMC; assay: Inhibition of RANKKL-induced upregulation of osteoclast related genes in C57BL/6J mouse BMM cells assessed as reduction in mCSF/RANKL-stimulated CTSK gene expression at 25 to 100 nM followed by stimulated with mCSF/RANKL measured after 2 hrs by qPCR analysis; format: functional, cell-based; conditions: dose 25-100 nM
[4] = molecular target: T1, Protein cereblon/Tyrosine-protein kinase BTK (Mus musculus); assay: PROTAC activity at BTK/CRBN in mCSF/RANKL-stimulated C57BL/6J mouse BMDM assessed as reduction in phosphorylated ERK protein level at 25 to 100 nM followed by stimulated with mCSF/RANKL measured after 2 hrs by Western blotting analysis; format: cell-based; conditions: dose 25-100 nM
[5] = Half life in Sprague-Dawley rat at 4 mg/kg, ip measured upto 48 hrs; format: ADME, organism-based; conditions: in vivo
[6] = Half life in Sprague-Dawley rat at 2 mg/kg, iv measured upto 48 hrs; format: ADME, organism-based; conditions: in vivo
[7] = Cmax in Sprague-Dawley rat at 2 mg/kg, iv measured upto 48 hrs; format: ADME, organism-based; conditions: in vivo
[8] = molecular target: T2, Protein cereblon/Tyrosine-protein kinase BTK (Homo sapiens, UniProt Q06187+Q96SW2); assay: PROTAC activity at BTK/CRBN in human MINO cells assessed as BTK protein degradation pretreated with 2 uM ibrutinib followed by 1 hr treated at 20 nM measured after 48 hrs by Western blotting analysis; format: cell-based; conditions: dose […]
T2 sequence (Q06187 2-659 limits assumed): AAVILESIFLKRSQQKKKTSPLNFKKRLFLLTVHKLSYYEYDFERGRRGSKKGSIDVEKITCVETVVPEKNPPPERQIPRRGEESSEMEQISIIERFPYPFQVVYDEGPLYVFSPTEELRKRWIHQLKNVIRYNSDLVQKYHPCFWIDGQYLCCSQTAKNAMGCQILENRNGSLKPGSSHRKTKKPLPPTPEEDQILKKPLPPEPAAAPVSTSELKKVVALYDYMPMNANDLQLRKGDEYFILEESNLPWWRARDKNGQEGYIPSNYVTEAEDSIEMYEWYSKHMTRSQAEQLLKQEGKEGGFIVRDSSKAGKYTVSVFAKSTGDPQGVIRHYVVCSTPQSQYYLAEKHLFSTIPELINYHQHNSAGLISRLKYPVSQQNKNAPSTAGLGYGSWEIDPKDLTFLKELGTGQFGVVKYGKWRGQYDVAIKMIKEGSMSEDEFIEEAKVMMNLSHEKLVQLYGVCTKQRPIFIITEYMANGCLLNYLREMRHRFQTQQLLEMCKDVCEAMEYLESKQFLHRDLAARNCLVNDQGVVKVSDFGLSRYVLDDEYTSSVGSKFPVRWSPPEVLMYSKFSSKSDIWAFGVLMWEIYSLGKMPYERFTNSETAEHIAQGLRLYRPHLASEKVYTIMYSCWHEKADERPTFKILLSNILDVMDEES
T2 sequence (Q96SW2 whole entry partner): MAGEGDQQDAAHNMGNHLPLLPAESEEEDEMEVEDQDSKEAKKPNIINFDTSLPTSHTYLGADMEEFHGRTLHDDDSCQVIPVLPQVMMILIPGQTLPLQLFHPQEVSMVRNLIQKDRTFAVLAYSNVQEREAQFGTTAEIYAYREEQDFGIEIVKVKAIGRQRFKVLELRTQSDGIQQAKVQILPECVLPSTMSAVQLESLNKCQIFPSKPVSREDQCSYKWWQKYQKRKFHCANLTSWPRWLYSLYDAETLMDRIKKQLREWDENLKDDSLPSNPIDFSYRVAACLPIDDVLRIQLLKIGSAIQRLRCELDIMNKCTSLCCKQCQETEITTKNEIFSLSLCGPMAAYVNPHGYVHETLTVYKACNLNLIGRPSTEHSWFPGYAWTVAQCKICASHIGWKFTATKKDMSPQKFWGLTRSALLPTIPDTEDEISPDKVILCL

[9] = molecular target: T2, Protein cereblon/Tyrosine-protein kinase BTK; assay: PROTAC activity at BTK/CRBN in human MINO cells assessed as BTK protein degradation at 20 nM measured after 2 hrs by Western blotting analysis; format: cell-based
[10] = AUC (0 to t) in Sprague-Dawley rat at 2 mg/kg, iv measured upto 48 hrs; format: ADME, organism-based; conditions: in vivo
[11] = molecular target: T2, Protein cereblon/Tyrosine-protein kinase BTK; assay: PROTAC activity at BTK/CRBN in human MINO cells assessed as BTK protein degradation at 20 nM by Western blotting analysis; format: cell-based; conditions: time lower 2.0 hrs, time upper […], TDE = time-dependent effect
[12] = molecular target: T2, Protein cereblon/Tyrosine-protein kinase BTK; assay: PROTAC activity at BTK/CRBN in human MINO cells assessed as BTK protein degradation pretreated with 2 uM MG132 followed by 1 hr treated at 20 nM measured after 48 hrs by Western blotting analysis; format: cell-based; conditions: dose […]
[13] = molecular target: T1, Protein cereblon/Tyrosine-protein kinase BTK (Mus musculus); assay: PROTAC activity at BTK/CRBN in mCSF/RANKL-stimulated C57BL/6J mouse BMDM assessed as reduction in phosphorylated JNK protein level at 25 to 100 nM followed by stimulated with mCSF/RANKL measured after 2 hrs by Western blotting analysis; format: cell-based; conditions: dose 25-100 nM
[14] = molecular target: T1, Protein cereblon/Tyrosine-protein kinase BTK (Mus musculus); assay: PROTAC activity at BTK/CRBN in C57BL/6J mouse BMDM assessed as reduction in mCSF/RANKL-stimulated intracellular calcium influx by measuring fluorescence intensity measured after 2 hrs by Fluo-4/AM-fluorescent assay; format: cell-based; conditions: dose 25-100 nM
[15] = molecular target: T1, Protein cereblon/Tyrosine-protein kinase BTK (Mus musculus); assay: PROTAC activity at BTK/CRBN in C57BL/6J mouse BMM cells assessed as reduction in mCSF/RANKL-stimulated c-Fos protein expression at 25 to 100 nM followed by stimulated with mCSF/RANKL measured after 2 hrs by Western blot analysis; format: cell-based; conditions: BMDM, dose 25-100 nM
[16] = test system: Mus musculus; assay: Antiosteoclastogenic effects in LPS-soaked ligature-induced C57BL/6J mouse periodontal disease model assessed as reduction in periodontal alveolar bone loss by measuring distance between the cemento-enamel junction (CEJ) at 10 to 30 mg/kg, ip treated on day 0, 1,4, 7 and measured on day 10 by Micro-CT 3D scan; format: functional, organism-based; conditions: dose 10-30 mg/kg, time 7.0 day
[17] = molecular target: T2, Protein cereblon/Tyrosine-protein kinase BTK; assay: PROTAC activity at BTK/CRBN in human MINO cells assessed as BTK protein degradation pretreated with 2 uM bafilomycin followed by 1 hr treated at 20 nM measured after 48 hrs by Western blotting analysis; format: cell-based; conditions: dose […]
[18] = AUC (0 to infinity) in Sprague-Dawley rat at 4 mg/kg, ip measured upto 48 hrs; format: ADME, organism-based; conditions: in vivo

Compound: Cc1cc(-c2nc(Nc3cnn(C4CCN(CC5CCN(c6ccc7c(c6)C(=O)N(C6CCC(=O)NC6=O)C7=O)CC5)CC4)c3)ncc2F)ccc1CNC(=O)c1cn(C(C)(C)C)nn1 (stereo not drawn)
- CL/F at 48 h [1]: 25.8 mL/min/kg
- Activity [2]: Active
- inhibition [3]: Active
- Activity [4]: Active
- half-life [5]: 13.6 h
- half-life [6]: 7.03 h
- Cmax [7]: 645 ng/mL
- Activity [8]: inactive
- Activity [9]: Active
- AUC(0-t) at 48 h [10]: 2340 ng·h/mL
- Activity [11]: Tde
- Activity [12]: inactive
- Activity [13]: Active
- Activity [14]: Dose-Dependent Effect
- Activity [15]: Active
- Activity [16]: Active
- Activity [17]: inactive
- AUC(0-inf) [18]: 3090 ng·h/mL
